pEC50: −log10 of the molar value.
Tests used:
Assay in all cases: Cytotoxicity assay, colorectal cancer cell line panel, onvansertib +/- 1 nM INBRX-109
Type in all cases: cell-based
NCI-H747 = conditions: for pEC50: Homo sapiens, NCI-H747, NCI-H747; for Max Cytotox at 600 nM: NCI-H747
Procedure: (§1) Monolayer cultures of each cell line were harvested for compound screening as detailed below.
(§2) Also on day 2, test and control articles were added.
(§3) On day 4, viability measurements were taken. […] Data was graphed in GraphPad Prism 9.
(§4) The results for a panel of colorectal cancer cell lines are shown in Table 3 and FIGS. 4-6, and the results for a panel of pancreatic cell lines are shown in Table 4 and FIGS. 7 and 8.

RKO = conditions: for pEC50: Homo sapiens
Procedure: as §1, §2, §3, §4

SK-CO-1 = conditions: for pEC50: Homo sapiens, SK-CO-1, SK-CO-1; for Max Cytotox at 600 nM: SK-CO-1
Procedure: as §1, §2, §3, §4

SNU-81 = test system: SNU-81
Procedure: as §1, §2, §3, §4

SNU-C2A = test system: SNU-C2A
Procedure: as §1, §2, §3, §4

SNU-C5 = test system: SNU-C5
Procedure: as §1, §2, §3, §4

SW-1116 = conditions: for pEC50: Homo sapiens, SW 1116, SW-1116; for Max Cytotox at 600 nM: SW-1116
Procedure: as §1, §2, §3, §4

SW-1463 = conditions: for pEC50: Homo sapiens, SW1463, SW-1463; for Max Cytotox at 600 nM: SW-1463
Procedure: as §1, §2, §3, §4

SW-403 = conditions: for pEC50: Homo sapiens, SW-403, SW-403; for Max Cytotox at 600 nM: SW-403
Procedure: as §1, §2, §3, §4

SW-480 = conditions: for pEC50: Homo sapiens, SW480, SW-480; for Max Cytotox at 600 nM: SW-480
Procedure: as §1, §2, §3, §4

SW-48 = conditions: for pEC50: Homo sapiens, SW48, SW-48; for Max Cytotox at 600 nM: SW-48
Procedure: as §1, §2, §3, §4

SW-837 = conditions: for pEC50: Homo sapiens, SW837, SW-837; for Max Cytotox at 600 nM: SW-837
Procedure: as §1, §2, §3, §4

SW-948 = conditions: for pEC50: Homo sapiens, SW948, SW-948; for Max Cytotox at 600 nM: SW-948
Procedure: as §1, §2, §3, §4

SW620 = conditions: for pEC50: Homo sapiens, SW-620, SW620; for Max Cytotox at 600 nM: SW620
Procedure: as §1, §2, §3, §4

T84 = conditions: for pEC50: Homo sapiens, T84, T84; for Max Cytotox at 600 nM: T84
Procedure: as §1, §2, §3, §4

## CN1CCN(c2ccc(OC(F)(F)F)c(Nc3ncc4c(n3)-c3c(c(C(N)=O)nn3CCO)CC4)c2)CC1 [Onvansertib]
NCI-H747; onvansertib + 1 nM INBRX-109
  pEC50: 7.10
  Max Cytotox at 600 nM: 44.5%
NCI-H747; onvansertib only
  pEC50: 7.15
  Max Cytotox at 600 nM: 17.4%
RKO; onvansertib + 1 nM INBRX-109
  pEC50: 7.26
  Max Cytotox at 600 nM: 93.8%
RKO; onvansertib only
  pEC50: 7.07
  Max Cytotox at 600 nM: 65.7%
SK-CO-1; onvansertib + 1 nM INBRX-109
  pEC50: 6.95
  Max Cytotox at 600 nM: 94.2%
SK-CO-1; onvansertib only
  pEC50: 6.95
  Max Cytotox at 600 nM: 52.8%
SNU-81; onvansertib + 1 nM INBRX-109
  pEC50: 7.14
  Max Cytotox at 600 nM: 92.3%
SNU-81; onvansertib only
  pEC50: 6.73
  Max Cytotox at 600 nM: 24.3%
SNU-C2A; onvansertib + 1 nM INBRX-109
  pEC50: 7.37
  Max Cytotox at 600 nM: 78.0%
SNU-C2A; onvansertib only
  pEC50: 7.14
  Max Cytotox at 600 nM: 42.9%
SNU-C5; onvansertib + 1 nM INBRX-109
  pEC50: 7.24
  Max Cytotox at 600 nM: 87.7%
SNU-C5; onvansertib only
  pEC50: 7.02
  Max Cytotox at 600 nM: 42.9%
SW-1116; onvansertib + 1 nM INBRX-109
  pEC50: 6.39
  Max Cytotox at 600 nM: 39.4%
SW-1116; onvansertib only
  pEC50: 6.36
  Max Cytotox at 600 nM: 10.4%
SW-1463; onvansertib + 1 nM INBRX-109
  pEC50: 7.01
  Max Cytotox at 600 nM: 64.2%
SW-1463; onvansertib only
  pEC50: 6.70
  Max Cytotox at 600 nM: 21.0%
SW-403; onvansertib + 1 nM INBRX-109
  pEC50: 7.19
  Max Cytotox at 600 nM: 89.0%
SW-403; onvansertib only
  pEC50: 7.20
  Max Cytotox at 600 nM: 46.4%
SW-480; onvansertib + 1 nM INBRX-109
  pEC50: 7.03
  Max Cytotox at 600 nM: 86.3%
SW-480; onvansertib only
  pEC50: 6.90
  Max Cytotox at 600 nM: 40.7%
SW-48; onvansertib + 1 nM INBRX-109
  pEC50: 7.55
  Max Cytotox at 600 nM: 99.4%
SW-48; onvansertib only
  pEC50: 7.43
  Max Cytotox at 600 nM: 76.6%
SW-837; onvansertib + 1 nM INBRX-109
  pEC50: 6.74
  Max Cytotox at 600 nM: 73.5%
SW-837; onvansertib only
  pEC50: 6.64
  Max Cytotox at 600 nM: 24.5%
SW-948; onvansertib + 1 nM INBRX-109
  pEC50: 7.63
  Max Cytotox at 600 nM: 99.0%
SW-948; onvansertib only
  pEC50: 7.01
  Max Cytotox at 600 nM: 43.2%
SW620; onvansertib + 1 nM INBRX-109
  pEC50: 7.26
  Max Cytotox at 600 nM: 90.4%
SW620; onvansertib only
  pEC50: 7.21
  Max Cytotox at 600 nM: 61.8%
T84; onvansertib + 1 nM INBRX-109
  pEC50: 6.53
  Max Cytotox at 600 nM: 62.9%
T84; onvansertib only
  pEC50: 6.45
  Max Cytotox at 600 nM: 32.1%
